From ChEMBL document CHEMBL1124132, “Adenosine receptor agonists: synthesis and biological evaluation of 1-deaza analogues of adenosine derivatives” (J Med Chem, 1988) come the findings set out here.

One assay is filed under the species Homo sapiens. Briefly: Concentration that inhibits platelet aggregation induced by ADP (7 uM) by 50%. The class given is functional.
Assay [1] addresses Adenosine A2 receptor (Rattus norvegicus, UniProt P29276+P30543).
Assay [2] has as its target T1, Adenosine receptor A1 (Rattus norvegicus, UniProt P25099).
T1 sequence (P25099 whole entry): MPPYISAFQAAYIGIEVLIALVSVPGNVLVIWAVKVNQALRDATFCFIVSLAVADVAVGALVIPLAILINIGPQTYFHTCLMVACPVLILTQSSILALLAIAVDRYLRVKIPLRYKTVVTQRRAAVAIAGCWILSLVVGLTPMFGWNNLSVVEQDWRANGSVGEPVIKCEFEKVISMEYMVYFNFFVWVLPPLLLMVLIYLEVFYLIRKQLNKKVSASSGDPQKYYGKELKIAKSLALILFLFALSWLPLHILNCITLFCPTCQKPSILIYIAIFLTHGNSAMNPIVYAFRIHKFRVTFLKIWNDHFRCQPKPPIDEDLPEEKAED
Briefly: Inhibition of Adenylate cyclase activity in rat fat cell membrane at adenosine A1 receptor. The class given is cell-based.

Assay [3] has as its target T2, Adenosine receptor A1 (Rattus norvegicus) (UniProt P25099).
T2 sequence (whole entry): T1 sequence (P25099 whole entry)
In words: Maximal inhibition of adenylate cyclase activity relative to R-PIA for Adenosine A1 receptor (Inhibition by R-PIA=53+/-10%).

For assay [4], the target named is T1, Adenosine receptor A1.
Description: Displacement of [3H]PIA from adenosine A1 receptor of rat brain membranes
In assay [5] the target is Adenosine A2 receptor (Homo sapiens, UniProt P29275+P29274).
Description: Stimulation of adenylate cyclase activity in human platelet membrane at A2 receptor
Assay [6] can be described thus: A1 selectivity as ratio of EC50 at A2 receptor to IC50 at A1 receptor.

In the case of `Nc1ncnc2c1ncn2[C@@H]1O[C@H](CO)[C@@H](O)[C@H]1O` [ADENOSINE], the IC50 (as a rule, the concentration at which inhibition is half-maximal) in the assay listed under Homo sapiens came to 5.94 µM.
For `OC[C@H]1O[C@@H](n2cnc3c(NC4CCCC4)cc(Cl)nc32)[C@H](O)[C@@H]1O`, the Ki (as a rule, a measure of affinity in units of concentration, obtained from inhibition or displacement) was 13.2 µM on Adenosine A2 receptor [1] and 0.0016 µM on Adenosine receptor A1 [4]. On Adenosine receptor A1 [2], this compound had an IC50 of 0.36 µM. Moreover, in assay [3], the relative max inhibition came out at 107%. Also, at Adenosine A2 receptor [5], the concentration giving a half-maximal response (EC50) (commonly the concentration needed to bring the measured effect to its halfway point) turned out to be 28 µM. In addition, the Selectivity in assay [6] stood at 78.
For the compound `OC[C@H]1O[C@@H](n2cnc3c(NC4CCCC4)ncnc32)[C@H](O)[C@@H]1O` [N6-CYCLOPENTYLADENOSINE], the Ki at Adenosine A2 receptor [1] worked out at 2 µM.
`OC[C@H]1O[C@@H](n2cnc3c(NC4CCCCC4)cc(Cl)nc32)[C@H](O)[C@@H]1O`: the Ki amounted to 8.2 µM on Adenosine A2 receptor [1] and 0.047 µM at Adenosine receptor A1 [4]. Half-maximal inhibition at Adenosine receptor A1 [2] (IC50) was put at 2.4 µM. Moreover, the relative max inhibition in assay [3] was 114%. At Adenosine A2 receptor [5], this compound displayed an EC50 of 4.8 µM. Moreover, the Selectivity in assay [6] is 2.
On to `CCNC(=O)[C@H]1O[C@@H](n2cnc3c(N)ccnc32)[C@H](O)[C@@H]1O`, for which the IC50 in the assay filed under Homo sapiens worked out at 5.96 µM; at Adenosine receptor A1 [2] it was 1.5 µM. The Ki on Adenosine A2 receptor [1] is 0.58 µM; on Adenosine receptor A1 [4], 0.051 µM. Moreover, in assay [3], the relative max inhibition came out at 104%. Also, the half-maximal effective concentration (EC50) on Adenosine A2 receptor [5] turned out to be 2.8 µM. The Selectivity in assay [6] stood at 1.9.
On to `CC(Cc1ccccc1)Nc1cc(Cl)nc2c1ncn2C1O[C@H](CO)[C@@H](O)[C@H]1O` (stereo partly drawn), for which the results for the Ki on Adenosine A2 receptor [1] and at Adenosine receptor A1 [4] were 3.7 µM and 0.018 µM, respectively. Further, at Adenosine receptor A1 [2], the IC50 was determined as 0.96 µM. Also, in assay [3], the relative max inhibition was 108%. This compound gave a concentration for a half-maximal effect (EC50) at Adenosine A2 receptor [5] of 3.5 µM. Also, in assay [6], the Selectivity was determined as 3.6.
For the compound `CCNC(=O)[C@H]1O[C@@H](n2cnc3c(N)ncnc32)[C@H](O)[C@@H]1O` [NECA], in the assay filed under Homo sapiens, the IC50 came out at 0.6 µM.
For the compound `OC[C@H]1O[C@@H](n2cnc3c(NC4CCCCC4)ccnc32)[C@H](O)[C@@H]1O`, the values for the Ki at Adenosine A2 receptor [1] and at Adenosine receptor A1 [4] were 6.8 µM and 0.016 µM, respectively. Also, at Adenosine receptor A1 [2], the half-inhibitory concentration (IC50) turned out to be 1.6 µM. Besides, in assay [3], the relative max inhibition is 109%. The same compound yielded a concentration giving a half-maximal response (EC50) on Adenosine A2 receptor [5] of 20 µM. In addition, the Selectivity in assay [6] was found to be 12.4.
As for `Nc1ccnc2c1ncn2[C@@H]1O[C@H](CO)[C@@H](O)[C@H]1O`, the IC50 in the assay listed under Homo sapiens is 65.5 µM; at Adenosine receptor A1 [2], 6.7 µM. Besides, the Ki is 2.9 µM at Adenosine A2 receptor [1] and 0.115 µM on Adenosine receptor A1 [4]. Also, the relative max inhibition in assay [3] amounted to 97%. The EC50 on Adenosine A2 receptor [5] is 18 µM. Besides, the Selectivity in assay [6] was 2.7.
Regarding `OC[C@H]1O[C@@H](n2cnc3c(NC4CCCC4)ccnc32)[C@H](O)[C@@H]1O`, the inhibition constant Ki was 17.6 µM on Adenosine A2 receptor [1] and 0.0075 µM on Adenosine receptor A1 [4]. In addition, on Adenosine receptor A1 [2], the IC50 is 0.97 µM. For the same compound, the relative max inhibition in assay [3] turned out to be 107%. Besides, the concentration giving a half-maximal response (EC50) at Adenosine A2 receptor [5] stood at 26 µM. The Selectivity in assay [6] is 27.
For `CC(Cc1ccccc1)Nc1ccnc2c1ncn2C1O[C@H](CO)[C@@H](O)[C@H]1O` (stereo partly drawn), the Ki at Adenosine A2 receptor [1] is 4.9 µM; on Adenosine receptor A1 [4], 0.0077 µM. At Adenosine receptor A1 [2], this compound gave an IC50 of 0.63 µM. Moreover, in assay [3], the relative max inhibition worked out at 116%. The EC50 at Adenosine A2 receptor [5] amounted to 6.6 µM. In addition, the Selectivity in assay [6] worked out at 10.5.
